Assay results as given in publication PMC8831520, “Small molecule SWELL1 complex induction improves glycemic control and nonalcoholic fatty liver disease in murine Type 2 diabetes” (Nature Communications, 2022).
Where “and” joins values, the source holds several entries; their conditions need not be identical. Equal entries are not always repeated. Entries after “also recorded” stand apart in the source; their conditions may differ.

Key:
primary hepatocytes = test: Signaling in cultured primary hepatocytes; format: cell-based, mouse; conditions: 10 µM, 24–48 h, SWELL1-dependent
Protocol: For primary hepatocytes isolation, the SWELL1^fl/fl (Wildtype, WT) and Albumin-Cre/SWELL1^fl/fl (Knockout, KO) mice were anesthetized using isoflurane. A 24 G i.v. catheter was inserted into the portal vein and a buffer containing HBSS (Ca^2+ and Mg^2+ free) + 0.5 mM EGTA was perfused through the liver at a rate of 4.5 mL/min. The portal vein was quickly cut after the perfusion began. The liver was perfused until it was free from blood and subsequently perfused with DMEM + 1x Pyruvate+ Type IV Collagenase (Sigma C5138) (1 mg/mL) for 4–5 min until the liver was soft. The liver was excised and put into 10 mL DMEM + collagenase solution. The tissue was broken down by agitation and passed through 25- and 10-mL pipette until the cells were free. The cells were suspended in 15 mL cold DMEM + 10% FBS + 1% P/S (penicillin and streptomycin). The cells were then passed through a 100 µm filter and spun at 50×g for 2 min. The supernatant was discarded and the cell pellet was washed with 25 mL of DMEM + 10% FBS + 1% P/S media three times. Cells were checked for viability by diluting 1:2 with Trypan blue and batches with >80% viability were used. The hepatocytes were then plated on Type I Collagen (75 µg/mL) coated dish with a density of 500,000 cells per well (6-well) in DMEM + 10% FBS + 1% P/S media.

eWAT adipocytes = test: Adipocyte size in eWAT of treated mice; format: in vivo, mouse; conditions: 5 days, vs vehicle
Protocol: Mice epididymal white adipose tissue (eWAT) was isolated and fixed in 10% neutral buffer formalin for 24 h at 4 °C. The formalin-fixed eWAT tissue was washed twice with 1XPBS buffer and dehydrated in a series of ethanol gradient. The dehydrated tissue was embedded in paraffin wax and 10 μm sections were cut by automated microtome and mounted on positively charged slides. Hematoxylin and eosin staining of the slides was performed at the Musculoskeletal Research Center, Washington University in St. Louis. Images were captured by Zeiss Axioscop with 10X objective and analyzed by ImageJ software. Measurement of adipocyte area was performed using the polygon selection tool of ImageJ. All quantifications were performed by blinded independent observers.

T2D KKAy mice = test: Plasma adiponectin and FGF21 ELISA; format: in vivo, mouse; conditions: 5 mg/kg i.p. daily × 5 days, vs vehicle
Protocol: Plasma adiponectin and FGF21 levels were measured using Mouse Adiponectin/Acrp30 Quantikine ELISA (Bio-Techne R&D Systems, MRP300) and mouse/rat FGF21 ELISA (BioVendor R&D, RD291108200R) kits respectively, as per the manufacturer’s instructions.

[1] = tested on: insulin-AKT2-AS160 signaling in 3T3-F442A cells; test: Insulin-stimulated AKT2-AS160 signaling western blot; format: cell-based, murine; conditions: 96 h
Protocol: Adipocytes were washed twice in ice-cold phosphate buffer saline and lysed in RIPA buffer (150 mM NaCl, 20 mM HEPES, 1% NP-40, 5 mM EDTA, pH 7.4) with proteinase/phosphatase inhibitors (Roche). The cell lysate was further sonicated in 10 s cycle intervals 2–3 times and centrifuged at 18,407×g for 30 min at 4 °C and repeated one more time to remove the excess fat. The supernatant was collected and further estimated for protein concentration using a DC protein assay kit (Bio-Rad). Fat and liver tissues were homogenized and suspended in RIPA buffer with inhibitors and further processed in a similar fashion as described above. HUVECs were also prepared in a similar fashion except the lysates were spun only once to remove the cells debris to obtain the clear supernatant. For islets, either human or mouse islets were washed twice with phosphate buffer saline (PBS) and lysed using RIPA buffer containing protease and phosphatase inhibitors. The lysate was further clarified by freezing in liquid nitrogen for about 10 s for three cycles. The supernatant was collected from the whole lysate centrifuged at 16,260×g for 20 min at 4 °C. […] For soleus muscle, the tissue was homogenized in a Bullet Blender homogenizer (Speed-9, Time-3 mins) in 8 volumes of ice-cold muscle homogenization buffer (50 mM Tris, 25 mM NaCl, 0.2% Nonidet P-40, 5 mM EGTA, 2.5 mM EDTA, 20 mM NaF, 20 mM Na4P2O7·10H2O, 2 mM Na3VO4, pH 7.4) supplemented with protease/phosphatase inhibitor (Roche). The homogenized lysate was centrifuged two times at 18,500×g for 20 min at 4 °C and supernatant was collected for protein estimation. Protein samples were further prepared by boiling in 2X or 4X Laemmli buffer. Approximately 10–60 µg of total protein was loaded in 4–15% gradient gel (Bio-Rad) for separation and protein transfer was carried out onto the PVDF membranes (Bio-Rad). […] The images were further analyzed for band intensities using ImageJ software. […]

## CCCCC1(C2CCCC2)Cc2cc(OCCCC(=O)O)c(Cl)c(Cl)c2C1=O (centres unmarked) [SN-401, 4-((2-butyl-6,7-dichloro-2-cyclopentyl-1-oxo-2,3-dihydro-1H-inden-5-yl)oxy)butanoic acid]
Primary hepatocytes
  pAS160 in primary hepatocytes: robustly induces
eWAT adipocytes; HFD-fed mice
  adipocyte size: unchanged; also recorded: no significant differences
eWAT adipocytes; KKAy mice
  adipocyte size reduction: 9%
T2D KKAy mice
  serum FGF21 increase: 2.8 fold and 3 fold
  serum adiponectin: unchanged; also recorded: no differences
[1]; 500 nM, WT adipocytes
  insulin-stimulated levels of pAS160: enhanced
[1]; 10 µM preadipocytes, 500 nM adipocytes
  insulin-stimulated levels of pAKT2: enhanced
[1]; SWELL1 KO 3T3-F442A adipocytes, 500 nM
  effects on insulin-AKT2-AS160 signaling in SWELL1 KO adipocytes: absent
